Patent US4496578A, “Antihypertensive sulfur-containing compounds” (Santen Pharmaceutical Co., Ltd., priority 1978, dated 1985)

Tested on: angiotensin I-converting enzyme
Assay: Percent inhibition of pressor response to angiotensin I in unanesthetized rats after oral administration (ACE inhibition in vivo)
Set-up: species or system Male Wistar strain rats
Procedure: As recently it has been clear that the compounds inhibiting angiotensin I-converting enzyme may be the curative potency against both renal hypertension and essential hypertension, the compounds of this invention are evaluated as antihypertensive agents by the following method.
Male Wistar strain rats weighing 200-300 g were used. Under ether anesthesia, polyethylene cannulae are inserted into carotid artery and jugular vein. The cannula to carotid artery is connected to an electric transducer, while the cannula to jugular vein is connected to an apparatus for continuous infusion. After the complete recovery from anesthesia, angiotensin I is infused intravenously in a dose of 300 ng/kg by the apparatus for continuous infusion, and the pressor response is recorded by polygraph (Nihon Koden, RM-150). The compounds of this invention suspended in 0.5% tragacanth solution are addministered orally in a dose of 0.3 ml per 100 g of body weight, and the pressor response to angiotensin I infused intravenously is measured with time.

[1] = 5 min after oral dose, mg/kg: 2 1.8, 2A 1.3, 2B 1.8, 22 1.5, 22A 1.0, 22B 1.4, 32 1.7, 32C 1.3, 64 1.9
[2] = 15 min after oral dose, mg/kg: 2 1.8, 2A 1.3, 2B 1.8, 22 1.5, 22A 1.0, 22B 1.4, 32 1.7, 32C 1.3, 64 1.9
[3] = 25 min after oral dose, mg/kg: 2 1.8, 2A 1.3, 2B 1.8, 22 1.5, 22A 1.0, 22B 1.4, 32 1.7, 32C 1.3, 64 1.9
[4] = 35 min after oral dose, mg/kg: 2 1.8, 2A 1.3, 2B 1.8, 22 1.5, 22A 1.0, 22B 1.4, 32 1.7, 32C 1.3, 64 1.9
[5] = 45 min after oral dose, mg/kg: 2 1.8, 2A 1.3, 2B 1.8, 22 1.5, 22A 1.0, 22B 1.4, 32 1.7, 32C 1.3, 64 1.9
[6] = 55 min after oral dose, mg/kg: 2 1.8, 2A 1.3, 2B 1.8, 22 1.5, 22A 1.0, 22B 1.4, 32 1.7, 32C 1.3, 64 1.9
[7] = 65 min after oral dose, mg/kg: 2 1.8, 2A 1.3, 2B 1.8, 22 1.5, 22A 1.0, 22B 1.4, 32 1.7, 32C 1.3, 64 1.9
[8] = 75 min after oral dose, mg/kg: 2 1.8, 2A 1.3, 2B 1.8, 22 1.5, 22A 1.0, 22B 1.4, 32 1.7, 32C 1.3, 64 1.9
[9] = 85 min after oral dose, mg/kg: 2 1.8, 2A 1.3, 2B 1.8, 22 1.5, 22A 1.0, 22B 1.4, 32 1.7, 32C 1.3, 64 1.9
[10] = 95 min after oral dose, mg/kg: 2 1.8, 2A 1.3, 2B 1.8, 22 1.5, 22A 1.0, 22B 1.4, 32 1.7, 32C 1.3, 64 1.9
[11] = 105 min after oral dose, mg/kg: 2 1.8, 2A 1.3, 2B 1.8, 22 1.5, 22A 1.0, 22B 1.4, 32 1.7, 32C 1.3, 64 1.9
[12] = 115 min after oral dose, mg/kg: 2 1.8, 2A 1.3, 2B 1.8, 22 1.5, 22A 1.0, 22B 1.4, 32 no value, 32C 1.3, 64 1.9

SMILES | Inhibition (%) of pressor response to angiotensin I [1] | Inhibition (%) of pressor response to angiotensin I [2] | Inhibition (%) of pressor response to angiotensin I [3] | Inhibition (%) of pressor response to angiotensin I [4] | Inhibition (%) of pressor response to angiotensin I [5] | Inhibition (%) of pressor response to angiotensin I [6] | Inhibition (%) of pressor response to angiotensin I [7] | Inhibition (%) of pressor response to angiotensin I [8] | Inhibition (%) of pressor response to angiotensin I [9] | Inhibition (%) of pressor response to angiotensin I [10] | Inhibition (%) of pressor response to angiotensin I [11] | Inhibition (%) of pressor response to angiotensin I [12]
C[C@H](CS)C(=O)N1CSC[C@H]1C(=O)O [Compound 22A, (4R)-3-[(2S)-3-mercapto-2-methylpropanoyl]-4-thiazolidinecarboxylic acid] | 34.0% | 51.5% | 49.7% | 45.0% | 37.5% | 30.2% | 30.2% | 30.2% | 28.0% | 19.8% | 10.2% | 8.0%
C[C@H](CSC(=O)c1ccccc1)C(=O)N1C(C(=O)O)CCC1c1ccccc1O (stereo partly drawn) [Compound 2B] | 7.9% | 36.8% | 36.8% | 36.8% | 45.7% | 31.6% | 31.6% | 31.6% | 21.1% | 21.1% | 15.8% | 15.8%
O=C(O)[C@@H]1CSC(c2ccccc2O)N1C(=O)CCS (stereo partly drawn) [Compound 32C] | 53.3% | 62.9% | 64.7% | 63.7% | 54.0% | 49.3% | 47.7% | 38.8% | 34.0% | 30.0% | 30.0% | 31.0%
Cc1ccc(C(=O)SC[C@@H](C)C(=O)N2C(C(=O)O)CCC2c2ccccc2O)cc1 (stereo partly drawn) [Compound 2] | 39.3% | 58.1% | 64.0% | 60.0% | 73.0% | 57.2% | 55.0% | 54.5% | 42.0% | 39.5% | 42.0% | 37.0%
C[C@H](CSC(=O)c1ccccc1)C(=O)N1CSC[C@H]1C(=O)OCOC(=O)C(C)(C)C [Compound 64, (2,2-Dimethyl-1-oxopropoxy)methyl (4R)-3-[(2S)-S-benzoyl-3-mercapto-2-methylpropanoyl]-4-thiazolidinecarboxylate] | 30.0% | 59.5% | 69.5% | 59.9% | 55.7% | 53.5% | 47.1% | 37.2% | 36.5% | 30.8% | 27.8% | 24.5%
C[C@H](CSC(=O)c1ccccc1)C(=O)N1CSC[C@H]1C(=O)O [Compound 22B, (4R)-3-[(2S)-S-benzoyl-3-mercapto-2-methylpropanoyl]-4-thiazoldinecarboxylic acid] | 45.4% | 60.7% | 60.6% | 45.4% | 45.4% | 45.4% | 42.4% | 36.4% | 30.3% | 21.2% | 21.2% | 21.2%
C[C@H](CS)C(=O)N1C(C(=O)O)CCC1c1ccccc1O (stereo partly drawn) [Compound 2A] | 20.0% | 40.0% | 37.5% | 36.5% | 33.7% | 30.0% | 28.2% | 20.0% | 30.0% | 24.8% | 21.0% | 20.0%
Cc1ccc(C(=O)SC[C@@H](C)C(=O)N2CSC[C@H]2C(=O)O)cc1 [Compound 22] | 45.2% | 60.4% | 51.4% | 59.0% | 55.0% | 50.8% | 55.0% | 53.5% | 49.4% | 46.5% | 39.8% | 31.6%
